Test results as given in patent publication US9567318B2, “Substituted pyrimidine compounds and uses thereof” (Memorial Sloan-Kettering Cancer Center, priority 2009, dated 2017).

Columns and labels:
Assay type in all cases: cell-based, human
[1] = system: Kasumi-1 acute myeloid leukemia cells; assay: Growth Inhibition Assay (Alamar blue), Kasumi-1; details: Homo sapiens, Kasumi 1, 72 h, Kasumi-1 cells
Outline: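 Adherent SKBr3 cells seeded at 8,000/well and suspension Kasumi-1 cells at 20,000/well, rested 24 h at 37 °C, then treated in triplicate for 72 h. Viability read by Alamar blue (440 µM) fluorescence (ex 530/em 580 nm) after 6 h; growth inhibition calculated versus untreated controls, corrected for the time-zero cell population.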

[2] = system: Mia-PaCa2, AsPC-1, BxPC3 and PL45 cells; assay: Apoptosis, acridine orange/ethidium bromide, pancreatic cancer cells; details: 10 μM, 24-48 h
Method: To determine whether cell death by YK5 was attributable to apoptosis, cells were treated with YK5 and effects on morphology, as well as on several effectors and mediators of apoptosis were analyzed (FIG. 13). To quantify the number of cells undergoing apoptosis, cells were stained with acridine orange/ethidium bromide (AO/EB) and analyzed under a fluorescence microscope for the percentage of viable, apoptotic (early and late) and necrotic cells. […] Most sensitive to YK5 were pancreatic cancer cells.
Apoptosis-Acridine Orange/Ethidium Bromide. Apoptosis was determined using acridine orange/ethidium bromide (AO/EB) double staining. Acridine orange is taken up by both viable and nonviable cells and emits green fluorescence if intercalated into double stranded nucleic acid (DNA) or red fluorescence if bound to single stranded nucleic acid (RNA). Ethidium bromide is taken up only by nonviable cells and emits red fluorescence by intercalation into DNA. (1) Viable cells have uniform green nuclei with organized structure. […] Following staining with Acridine Orange and Ethidium Bromide cells were visualized with a fluorescent microscope (Zeiss Axiovert 40 CFL) and counted. Percentage of apoptotic cells was determined from 200-300 cells counted in each group.

[3] = system: STAT1 in MDA-MB-468 cells; assay: Activated STAT1 DNA binding assay (ELISA); details: IFNγ 100 ng/ml
Method: FIG. 19. YK5 enhances the nuclear content of IFNγ activated STAT1 and potentiates its binding to DNA. MDAMB-468 cells were treated with IFNγ (100 ng/ml) or co-treated with IFNγ (100 ng/ml) and YK5 (10 μM). (a) Activated STAT1 (pTyr701), was determined by immunofluorescent microscopy with a secondary antibody conjugated with FITC. Nuclear staining was performed with DAPI. (b) Activated STAT1 binding to STAT consensus binding site (5′-[…]-3′) was determined by an ELISA-based assay. Activated STAT1, contained in lysates from untreated (white bar), treated with YK5 (light grey bar), IFNγ (dark grey bars) or the combination of IFNγ and YK5 (black bars) cells, and bound to the oligonucleotide, was detected through use of an anti-STAT1 antibody. Assays were performed in the absence or presence of 20 pmol of competitor oligonucleotide that contains either a wild-type or a mutated STAT consensus binding site using IFNγ-treated cells (dark grey bars). […] Results are expressed as mean absorbance values (OD450 nm) with SEM.
Activated STAT1 DNA binding assay. […] After HRP substrate addition, absorbance was read at 450 nm with a reference wavelength of 655 nm (Synergy4, Biotek, Winooski, Vt.). In this assay the absorbance is directly proportional to the quantity of DNA-bound transcription factor present in the sample. […] Results were expressed as mean absorbance values with SEM. […]

C=CC(=O)Nc1cc(N)nc(Sc2c(OC)nc(N3CCN(C)CC3)nc2OC)n1 [YK5, N-(6-amino-2-(4,6-dimethoxy-2-(4-methylpiperazin-1-yl)pyrimidin-5-ylthio)pyrimidin-4-yl)acrylamide] was tested, and the IC50 [1] was 0.4 to 0.6 µM, the “apoptosis in pancreatic cancer cells” value [2] was “induced significant apoptosis” and the “DNA-binding efficacy of activated STAT1” value [3] was “increased its DNA-binding efficacy”.
